# Test results taken from patent publication US8569270B2, “Diphenyl sulfide derivatives and medicines containing same as active ingredient” (Kyorin Pharmaceutical Co., Ltd., priority 2009, dated 2013).
# Target: T1, Human S1P3 receptor (Homo sapiens, UniProt Q99500)
# T1 construct: expressed in transfected cells; host or cells: CHO cells (Geneticin-selected)
# Test: Suppression of S1P-induced cellular calcium mobilization in human S1P3 receptor-expression CHO cells (Schild plot)
# Assay type: cell-based
# Settings: Schild plot of S1P EC50 shift; test compound 125 nM, 1.25 μM, 12.5 μM; hS1P3 CHO cells; read-out: S1P3 dissociation constant Kd value
# Method: Suppression Effect of Test Compound Against Cellular Calcium Mobilization of Human S1P3 Receptor-Expression Cell by S1P (Sphingosine 1-Phosphoric Acid)
# Human S1P3 receptor-expression CHO cells were subcultured in a Ham's F-12 culture medium containing 10% fetal bovine serum, and 300 μg/mL of Geneticin. The human S1P3 receptor-expression CHO cells were subjected to 0.25% trypsinization, then recovered from the dish, and floated in a Ham's F-12 culture medium containing 10% fetal bovine serum, and 300 μg/mL of Geneticin. After that, the human S1P3 receptor-expression CHO cells were disseminated into a 96-well black clear bottom plate (BD Falcon Biocoat) so that 7×10^4/100 μL/well of the human S1P3 receptor-expression CHO cells were disseminated. And then, the human S1P3 receptor-expression CHO cells were cultivated for one night at 37° C. under 5% CO2. The next day, the wells were washed 3 times with 100 μL of PBS containing 0.1% fatty acid-free bovine serum albumin (BSA). The culture medium was exchanged with a Ham's F-12 culture medium containing 0.1% BSA, and then starved of serum for 6 hours in an CO2 incubator at 37° C.
# The culture medium was thrown away after the 6 hours. Then, 50 μL/well of a Fluo3 loading buffer was added, and the cultures were cultivated for further 1 hour. The Fluo3 loading buffer was prepared as follows. First, equal amounts of Fluo3-AM (Dojindo) and pluronic F-127 (20% DMSO solution, invitrogen) were mixed. Next, the mixture of Fluo3-AM and pluronic F-127 was added to a Hanks-HEPES buffer (balanced salt solution containing 20 mM HEPES (pH, 7.4), 0.1% BSA (fatty acid-free), and 2.5 mM probenecid) to form a Fluo3 loading buffer having a final Fluo3-AM concentration of 4
# After incubating for 1 hour, the cultures were washed 3 times with 100 μL of the Hanks-HEPES buffer. Then, 100 μL of the same buffer in which a test compound (125 nM, 1.25 μM, 12.5 μM) or DMSO had been dissolved was added to the cultures, and then incubated for 30 minutes at 37° C. in a microplate spectrophotofluorometer (FLEX Station) (Molecular Device Co., Ltd.). Then, 25 μL of S1P prepared at 5 times the concentration of the final concentration by serial dilution (final concentration of 0.1 nM, 1 nM, 10 nM, 100 nM, and 1 μM) was added, and the fluorescence based on the Fluo3 due to calcium mobilization was detected and measured at an excitation wavelength of 485 nm and a detection wavelength of 525 nm using the same apparatus. Based on the measurement data, the increase in fluorescence was calculated by subtracting the minimum fluorescence intensity from the maximum fluorescence intensity. The measured increase in fluorescence was used to perform a curve approximation of the relationship between the S1P concentration and the increase in fluorescence using PRISM 4 software (GraphPad). Based on the results, the EC50 value of the compound-untreated and the EC50 value of the compound-treated at each concentration were calculated. Schild Plot analysis was performed based on these values to determine dissociation constant Kd value. In Table 1, 1,000 nmol/L>Kd value≧100 nmol/L is indicated as “+,” 100 nmol/L>Kd value≧10 nmol/L is indicated as “++,” 10 nmol/L>Kd value≧1 nmol/L is indicated as “+++,” and 1 nmol/L>Kd value is indicated as “++++.”
# T1 sequence (Q99500 whole entry): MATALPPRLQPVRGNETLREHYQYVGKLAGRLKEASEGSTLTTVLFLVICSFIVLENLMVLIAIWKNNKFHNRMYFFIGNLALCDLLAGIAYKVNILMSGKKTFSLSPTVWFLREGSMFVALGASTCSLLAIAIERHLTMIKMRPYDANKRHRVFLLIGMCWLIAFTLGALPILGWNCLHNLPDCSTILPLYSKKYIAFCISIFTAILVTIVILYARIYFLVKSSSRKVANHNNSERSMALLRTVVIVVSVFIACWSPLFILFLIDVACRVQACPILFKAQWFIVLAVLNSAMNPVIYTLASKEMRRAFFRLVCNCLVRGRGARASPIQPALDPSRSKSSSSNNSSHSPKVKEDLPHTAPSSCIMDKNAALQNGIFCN
row,Compound,Kd
1,CC(C)c1ccc(O)c(Sc2ccc(CC[C@](C)(N)COP(=O)(O)O)c(Cl)c2)c1 [Example 4],0.001 to 0.01 µM
2,"C[C@](N)(CCc1ccc(Sc2cc(C3CC3)ccc2O)cc1Cl)COP(=O)(O)O [Example 5, (S)-2-amino-4-[2-chloro-4-(5-cyclopropyl-2-hydroxyphenylthio)phenyl]-2-methylbutylphosphoric acid monoester]",0.001 to 0.01 µM
3,"CCCc1ccc(O)c(Sc2ccc(CC[C@](C)(N)COP(=O)(O)O)c(Cl)c2)c1 [Example 3, (S)-2-amino-4-[2-chloro-4-(2-hydroxy-5-propylphenylthio)phenyl]-2-methylbutylphosphoric acid monoester]",0.01 to 0.1 µM
4,"Cc1ccc(O)c(Sc2ccc(CC[C@](C)(N)COP(=O)(O)O)c(Cl)c2)c1 [Example 1, (S)-2-amino-4-[2-chloro-4-(2-hydroxy-5-methylphenylthio)phenyl]-2-methylbutylphosphoric acid monoester]",0.01 to 0.1 µM
5,"C[C@](N)(CCc1ccc(Sc2cc(Cl)ccc2O)cc1Cl)COP(=O)(O)O [Example 10, (S)-2-amino-4-[2-chloro-4-(5-chloro-2-hydroxyphenylthio)phenyl]-2-methylbutylphosphoric acid monoester]",0.01 to 0.1 µM
6,"CCC[C@](N)(CCc1ccc(Sc2cc(C(C)(C)C)ccc2O)cc1Cl)COP(=O)(O)O [Example 21, (S)-2-amino-4-[4-(5-t-butyl-2-hydroxyphenylthio)-2-chlorophenyl]-2-propylbutylphosphoric acid monoester]",< 0.001 µM
7,"CC(=O)c1ccc(O)c(Sc2ccc(CC[C@](C)(N)COP(=O)(O)O)c(Cl)c2)c1 [Example 16, (S)-4-[4-(5-acetyl-2-hydroxyphenylthio)-2-chlorophenyl]-2-amino-2-methylbutylphosphoric acid monoester]",0.01 to 0.1 µM
8,"CCC[C@](N)(CCc1ccc(Sc2cc(C(C)C)ccc2O)cc1Cl)COP(=O)(O)O [Example 19, (S)-2-amino-4-[2-chloro-4-(2-hydroxy-5-isopropylphenylthio)phenyl]-2-propylbutylphosphoric acid monoester]",0.001 to 0.01 µM
9,"CCC[C@](N)(CCc1ccc(Sc2cc(C3CC3)ccc2O)cc1Cl)COP(=O)(O)O [Example 20, (S)-2-amino-4-[2-chloro-4-(5-cyclopropyl-2-hydroxyphenylthio)phenyl]-2-propylbutylphosphoric acid monoester]",0.001 to 0.01 µM

# More lines, now with the values ahead:
row,Kd,Compound
1,0.001 to 0.01 µM,"C[C@](N)(CCc1ccc(Sc2cc(OCc3ccccc3)ccc2O)cc1Cl)COP(=O)(O)O [Example 9, (S)-2-amino-4-[4-(5-benzyloxy-2-hydroxyphenylthio)-2-chlorophenyl]-2-methylbutylphosphoric acid monoester]"
2,0.001 to 0.01 µM,"CCC[C@](N)(CCc1ccc(Sc2cc(OCc3ccccc3)ccc2O)cc1Cl)COP(=O)(O)O [Example 23, (S)-2-amino-4-[4-(5-benzyloxy-2-hydroxyphenylthio)-2-chlorophenyl]-2-propylbutylphosphoric acid monoester]"
3,0.1 to 1 µM,"C[C@](N)(CCc1ccc(Sc2cc(C(F)(F)F)ccc2O)cc1Cl)CCP(=O)(O)O [Example 17, (S)-3-amino-5-[2-chloro-4-(2-hydroxy-5-trifluoromethylphenylthio)phenyl]-3-methylpentylphosphonic acid]"
4,0.01 to 0.1 µM,"CC(C)Oc1ccc(O)c(Sc2ccc(CC[C@](C)(N)COP(=O)(O)O)c(Cl)c2)c1 [Example 8, (S)-2-amino-4-[2-chloro-4-(2-hydroxy-5-isopropoxyphenylthio)phenyl]-2-methylbutylphosphoric acid monoester]"
5,< 0.001 µM,"C=CC[C@](N)(CCc1ccc(Sc2cc(C(F)(F)F)ccc2O)cc1Cl)COP(=O)(O)O [Example 12, (R)-2-allyl-2-amino-4-[2-chloro-4-(2-hydroxy-5-trifluoromethylphenylthio)phenyl]-butylphosphoric acid monoester]"
6,0.01 to 0.1 µM,"CCc1ccc(O)c(Sc2ccc(CC[C@](C)(N)COP(=O)(O)O)c(Cl)c2)c1 [Example 2, (S)-2-amino-4-[2-chloro-4-(5-ethyl-2-hydroxyphenylthio)phenyl]-2-methylbutylphosphoric acid monoester]"
7,0.01 to 0.1 µM,"CCOc1ccc(O)c(Sc2ccc(CC[C@](C)(N)COP(=O)(O)O)c(Cl)c2)c1 [Example 7, (S)-2-amino-4-[2-chloro-4-(5-ethoxy-2-hydroxyphenylthio)phenyl]-2-methylbutylphosphoric acid monoester]"
8,0.01 to 0.1 µM,"C[C@](N)(CCc1ccc(Sc2ccccc2O)cc1Cl)COP(=O)(O)O [Example 14, (S)-2-amino-4-[2-chloro-4-(2-hydroxyphenylthio)phenyl]-2-methylbutylphosphoric acid monoester]"
9,0.001 to 0.01 µM,"C[C@](N)(CCc1ccc(Sc2cc(C(F)(F)F)ccc2O)cc1Cl)COP(=O)(O)O [Example 11, (S)-2-amino-4-[2-chloro-4-(2-hydroxy-5-trifluoromethylphenylthio)phenyl]-2-methylbutylphosphoric acid monoester]"
10,0.1 to 1 µM,"COc1ccc(O)c(Sc2ccc(CC[C@](C)(N)COP(=O)(O)O)c(Cl)c2)c1 [Example 6, (S)-2-amino-4-[2-chloro-4-(2-hydroxy-5-methoxyphenylthio)phenyl]-2-methylbutylphosphoric acid monoester]"
11,0.001 to 0.01 µM,"CCCc1ccc(O)c(Sc2ccc(CC[C@@](N)(CCC)COP(=O)(O)O)c(Cl)c2)c1 [Example 18, (S)-2-amino-4-[2-chloro-4-(2-hydroxy-5-propylphenylthio)phenyl]-2-propylbutylphosphoric acid monoester]"

# System: IL-1β production
# Test: LPS induced sepsis model, IL-1β in tissue by ELISA
# Assay type: in vivo, C57BL/6J mouse
# Settings: 10 mg/kg i.v. twice (15 min before and 2 h after LPS), 18 h after LPS, mouse lung
# Method: The experiment was carried out with reference to the method described in Non-Patent Literature 5 (F. Nissen et al., Nature, 452, 654 (2008)). A solution of 1 mg/ml LPS (lipopolysaccharide) in physiological saline was intraperitoneally administered (10 ml/kg) to a C57BL/6J mouse (Charles River, male, 7 to 8 weeks). The test compound in an amount of 10 mg/kg was intravenously administered twice, 15 minutes before LPS administration and 2 hours after LPS administration. The mouse was dissected 18 hours after LPS administration, and the mesenteric lymph nodes and lungs were excised. The mesenteric lymph nodes were dissolved in 200 μl and the lungs in 1 ml of a dissolving buffer (30 mM Tris (pH7.4), 150 mM NaCl, 0.1% TritonX-100, 2 mM CaCl2, and 2 mM MgCl2). Non-dissolved matter was removed by centrifugal separation. The IL-1β in the tissue solutions was measured using an IL-1β ELISA Kit (Thermo Co., Ltd.). In Table 2, compounds having a suppression rate of 50% or more are indicated as “+++,” compounds having a suppression rate of 50%>suppression rate≧30% are indicated as “++,” and compounds having a suppression rate of 30%>suppression rate 20% are indicated as “+.”
# The suppression rate was calculated using the following calculation equation. a=(1−X/Y)×100 [Equation 1] X: IL-1β PRODUCTION AMOUNT WHEN, 10 mg/kg OF TEST COMPOUND WAS ADMINISTERED TO RESPECTIVE TISSUE Y: IL-1β PRODUCTION AMOUNT WHEN TEST COMPOUND WAS NOT ADMINISTERED TO RESPECTIVE TISSUE a: SUPPRESSION RATE (%)
row,Compound,Suppression Rate for Lung
1,"C=CC[C@](N)(CCc1ccc(Sc2cc(C(F)(F)F)ccc2O)cc1Cl)COP(=O)(O)O [Example 12, (R)-2-allyl-2-amino-4-[2-chloro-4-(2-hydroxy-5-trifluoromethylphenylthio)phenyl]-butylphosphoric acid monoester]",++ (50%>suppression rate≧30%)
2,"C[C@](N)(CCc1ccc(Sc2cc(C(F)(F)F)ccc2O)cc1Cl)COP(=O)(O)O [Example 11, (S)-2-amino-4-[2-chloro-4-(2-hydroxy-5-trifluoromethylphenylthio)phenyl]-2-methylbutylphosphoric acid monoester]",++ (50%>suppression rate≧30%)

# Same assay, conditions: 10 mg/kg i.v. twice (15 min before and 2 h after LPS), 18 h after LPS, mouse mesenteric lymph nodes
row,Compound,Suppression Rate for Mesenteric Lymph Nodes
1,"C=CC[C@](N)(CCc1ccc(Sc2cc(C(F)(F)F)ccc2O)cc1Cl)COP(=O)(O)O [Example 12, (R)-2-allyl-2-amino-4-[2-chloro-4-(2-hydroxy-5-trifluoromethylphenylthio)phenyl]-butylphosphoric acid monoester]",+ (30%>suppression rate 20%)
2,"C[C@](N)(CCc1ccc(Sc2cc(C(F)(F)F)ccc2O)cc1Cl)COP(=O)(O)O [Example 11, (S)-2-amino-4-[2-chloro-4-(2-hydroxy-5-trifluoromethylphenylthio)phenyl]-2-methylbutylphosphoric acid monoester]",++ (50%>suppression rate≧30%)
